A value given as a limit tells only on which side of the number the result lay.

We go through one compound from ChEMBL document CHEMBL5728306, “Spirocyclic compounds” (2021).

The target of this experiment is Mitogen-activated protein kinase 1 (Homo sapiens, UniProt P28482). Briefly: ERK1 & ERK2 were then activated by the addition of F1-Substrate, ATP and metal solution and incubated for 1 h at rt. After 1 h, the reaction was terminated by the addition of […] of Termination Buffer (QuickScout Screening Assist MSA; Carna Biosciences) to the well.
Mitogen-activated protein kinase 1, sequence (P28482 whole entry): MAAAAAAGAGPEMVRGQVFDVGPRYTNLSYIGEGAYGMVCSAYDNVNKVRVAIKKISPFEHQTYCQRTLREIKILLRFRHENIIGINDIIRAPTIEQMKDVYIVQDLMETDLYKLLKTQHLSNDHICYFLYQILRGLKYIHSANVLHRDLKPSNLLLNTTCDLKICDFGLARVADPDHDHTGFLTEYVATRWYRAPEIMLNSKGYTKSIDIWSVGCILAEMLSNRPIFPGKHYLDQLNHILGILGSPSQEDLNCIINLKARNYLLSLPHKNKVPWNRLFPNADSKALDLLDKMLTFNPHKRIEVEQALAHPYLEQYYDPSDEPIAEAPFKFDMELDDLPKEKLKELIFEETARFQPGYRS

As a reminder, the IC50 is the concentration that gives 50% inhibition. Read a high IC50 as weaker potency in that assay. Compound `Cc1ncc(-c2n[nH]c3ccc(N4CC[C@]5(CCN(CC(=O)N6CC=C(c7ccc(-c8ncn(C)n8)cc7)CC6)C5)C4=O)nc23)s1` showed an IC50 of less than 50 nM.
